How the values were obtained:
Format in all cases: biochemical
[1] = biological target: immunoproteasome LMP7/B5i subunit (Homo sapiens, UniProt P28062); assay: Caliper-based proteasome enzymatic activity assay, LMP7; conditions: human recombinant immunoproteasome 0.3 nM, FAM-labeled peptide substrate 1 μM, rt 3 h; read-out: LMP7 subunit IC50
[2] = biological target: constitutive proteasome β5c unit (Homo sapiens, UniProt P28074); assay: Caliper-based proteasome enzymatic activity assay, β5c; conditions: human recombinant constitutive proteasome 0.3 nM, FAM-labeled peptide substrate 1 μM, rt 3 h; read-out: β5c subunit IC50
[3] = biological target: immunoproteasome LPM2/β1i subunit (Homo sapiens, UniProt P28065); assay: Caliper-based proteasome enzymatic activity assay, LMP2; conditions: human recombinant immunoproteasome 0.3 nM, FAM-labeled peptide substrate 1 μM, rt 2 h

| IC50 [1] [nM] | IC50 [2] [nM] | IC50 [3] [nM] | SMILES |
| --- | --- | --- | --- |
| 2.3 | 501 | > 5000 | CC(C)(C=C(C#N)C(=O)N1CCC[C@H](OC(=O)N[C@@H](Cc2ccc(F)cc2)B(O)O)C1)N1CCC(F)(F)C1 [Example 78, ((R)-1-(((((S)-1-(2-cyano-4-(3,3-difluoropyrrolidin-1-yl)-4-methylpent-2-enoyl)piperidin-3-yl)oxy)carbonyl)amino)-2-(4-fluorophenyl)ethyl)boronic acid] |
| 12.8 | 8.5 | 46.3 | CC(C)C=C(C#N)C(=O)NCCCC[C@H](NC(=O)c1cnccn1)C(=O)N[C@@H](CC(C)C)B(O)O [Example 2, ((R)-1-((S)-6-(2-cyano-4-methylpent-2-enamido)-2-(pyrazine-2-carboxamido)hexanamido)-3-methylbutyl)boronic acid] |
| > 5000 | > 5000 | > 5000 | CC(C)C=C(C#N)C(=O)N1CCCC[C@@H]1CNC(=O)N[C@@H](Cc1ccccc1)B(O)O [Example 33, ((R)-1-(3-(((R)-1-(2-cyano-4-methylpent-2-enoyl)piperidin-2-yl)methyl)ureido)-2-phenylethyl)boronic acid] |
| 611 | > 5000 | > 5000 | CC(C)C=C(C#N)C(=O)N1CCCC[C@H]1CNC(=O)N[C@@H](Cc1ccccc1)B(O)O [Example 35, ((R)-1-(3-(((S)-1-(2-cyano-4-methylpent-2-enoyl)piperidin-2-yl)methyl)ureido)-2-phenylethyl)boronic acid] |
| 13 | > 5000 | > 5000 | Cc1ccc(C[C@H](NC(=O)NC[C@@H]2CCCN2C(=O)C(C#N)=CC(C)(C)C)B(O)O)cc1 [Example 42, ((R)-1-(3-(((S)-1-(2-cyano-4,4-dimethylpent-2-enoyl)pyrrolidin-2-yl)methyl)ureido)-2-(p-tolyl)ethyl)boronic acid] |
| 1.1 | 54.6 | > 5000 | CC(C)(C=C(C#N)C(=O)N1CCC[C@H](OC(=O)N[C@@H](Cc2coc3ccccc23)B(O)O)C1)N1CCC(F)(F)C1 [Example 73, ((R)-2-(benzofuran-3-yl)-1-(((((S)-1-(2-cyano-4-(3,3-difluoropyrrolidin-1-yl)-4-methylpent-2-enoyl)piperidin-3-yl)oxy)carbonyl)amino)ethyl)boronic acid] |
| 113 | 1610 | 1860 | C=CC(=O)N1CC[C@H](OC(=O)N[C@@H](Cc2ccccc2)B(O)O)C1 [Example 88, ((R)-1-(((((S)-1-acryloylpyrrolidin-3-yl)oxy)carbonyl)amino)-2-phenylethyl)boronic acid] |
| 8.7 | 383 | 3740 | CC(C)(C=C(C#N)C(=O)N1CCC[C@@H]1CNC(=O)N[C@@H](Cc1coc2ccccc12)B(O)O)N1CCN(C2COC2)CC1 [Example 48, ((R)-2-(benzofuran-3-yl)-1-(3-(((R)-1-(2-cyano-4-methyl-4-(4-(oxetan-3-yl)piperazin-1-yl)pent-2-enoyl)pyrrolidin-2-yl)methyl)ureido)ethyl)boronic acid] |
| > 5000 | > 5000 | > 5000 | C=CC(=O)N1CCCC[C@H]1CNC(=O)N[C@@H](Cc1ccccc1)B(O)O [Example 38, ((R)-1-(3-(((S)-1-acryloylpiperidin-2-yl)methyl)ureido)-2-phenylethyl)boronic acid] |
| 3.5 | 1900 | > 5000 | CC(C)(C=C(C#N)C(=O)N1CCC[C@@H]1CNC(=O)N[C@@H](Cc1coc2ccccc12)B(O)O)N1CCOCC1 [Example 47, ((R)-2-(benzofuran-3-yl)-1-(3-(((R)—1(2-cyano-4-methyl-4-morpholinopent-2-enoyl)pyrrolidin-2-yl)methyl)ureido)ethyl)boronic acid] |
| 4 | 1690 | > 5000 | Cc1ccc(C[C@H](NC(=O)OC[C@H]2CCN(C(=O)C(C#N)=CC(C)(C)C)C2)B(O)O)cc1 [Example 46, ((R)-1-(((((S)-1-(2-cyano-4,4-dimethylpent-2-enoyl)pyrrolidin-3-yl)methoxy)carbonyl)amino)-2-(p-tolyl)ethyl)boronic acid] |
| 2.6 | 1620 | 3190 | CC(C)(C=C(C#N)C(=O)N1C2CCC1(COC(=O)N[C@@H](Cc1ccccc1)B(O)O)CC2)N1CCC(F)(F)C1 [Example 57, (R)-(1-((((7-(2-cyano-4-(3,3-difluoropyrrolidin-1-yl)-4-methylpent-2-enoyl)-7-azabicyclo[2.2.1]heptan-1-yl)methoxy)carbonyl)amino)-2-phenylethyl)boronic acid] |
| 2.2 | 2850 | > 5000 | Cc1ccc(C[C@H](NC(=O)OC[C@H]2CCCN(C(=O)C(C#N)=CC(C)(C)C)C2)B(O)O)cc1 [Example 44, ((R)-1-(((((S)-1-(2-cyano-4,4-dimethylpent-2-enoyl)piperidin-3-yl)methoxy)carbonyl)amino)-2-(p-tolyl)ethyl)boronic acid] |
| 30 | > 5000 | > 5000 | C=CC(=O)N1CCC[C@@H]1CNC(=O)N[C@@H](Cc1coc2ccccc12)B(O)O [Example 41, ((R)-1-(3-(((R)-1-acryloylpyrrolidin-2-yl)methyl)ureido)-2-(benzofuran-3-yl)ethyl)boronic acid] |
| 4.7 | 2070 | > 5000 | CC(C)(C)C=C(C#N)C(=O)N1CCC[C@@H]1CNC(=O)N[C@@H](Cc1coc2ccccc12)B(O)O [Example 45, ((R)-2-(benzofuran-3-yl)-1-(3-(((R)-1-(2-cyano-4,4-dimethylpent-2-enoyl)pyrrolidin-2-yl)methyl)ureido)ethyl)boronic acid] |
| 12.3 | 27.4 | 115 | CC(C)C=C(C#N)C(=O)NCCCC[C@H](NC(=O)c1cnccn1)C(=O)N[C@@H](Cc1ccccc1)B(O)O [Example 5, ((R)-1-((S)-6-(2-cyano-4-methylpent-2-enamido)-2-(pyrazine-2-carboxamido)hexanamido)-2-phenylethyl)boronic acid] |
| 2.3 | 944 | > 5000 | COC(=O)N1CCN(C(C)(C)C=C(C#N)C(=O)N2CCC[C@H](OC(=O)N[C@@H](Cc3ccccc3)B(O)O)C2)CC1 [Example 83, ((R)-1-(((((S)-1-(2-cyano-4-(4-(methoxycarbonyl)piperazin-1-yl)-4-methylpent-2-enoyl)piperidin-3-yl)oxy)carbonyl)amino)-2-phenylethyl)boronic acid] |
| 4530 | > 5000 | > 5000 | C=CC(=O)N1CCC[C@H]1CNC(=O)N[C@@H](Cc1ccccc1)B(O)O [Example 37, ((R)-1-(3-(((S)-1-acryloylpyrrolidin-2-yl)methyl)ureido)-2-phenylethyl)boronic acid] |
| 4.4 | > 5000 | > 5000 | Cc1ccc(C[C@H](NC(=O)NC[C@H]2CCCN2C(=O)C(C#N)=CC(C)(C)C)B(O)O)cc1 [Example 43, ((R)-1-(3-(((R)-1-(2-cyano-4,4-dimethylpent-2-enoyl)pyrrolidin-2-yl)methyl)ureido)-2-(p-tolyl)ethyl)boronic acid] |
| 12.9 | 38.5 | 82.7 | CC(C)C=C(C#N)C(=O)NCCCC[C@H](NC(=O)c1cccc(O)n1)C(=O)N[C@@H](Cc1ccccc1)B(O)O [Example 6, ((R)-1-((S)-6-(2-cyano-4-methylpent-2-enamido)-2-(6-hydroxypicolinamido)hexanamido)-2-phenylethyl)boronic acid] |

| SMILES | IC50 [1] [nM] | IC50 [2] [nM] | IC50 [3] [nM] |
| --- | --- | --- | --- |
| CC(C)C=C(C#N)C(=O)N1CCC[C@H]1CNC(=O)N[C@@H](Cc1ccccc1)B(O)O [Example 34, ((R)-1-(3-(((S)-1-(2-cyano-4-methylpent-2-enoyl)pyrrolidin-2-yl)methyl)ureido)-2-phenylethyl)boronic acid] | 231 | > 5000 | > 5000 |
| CC(C)(C)C=C(C#N)C(=O)N1CCC[C@H]1CNC(=O)N[C@@H](Cc1ccccc1)B(O)O [Example 39, ((R)-1-(3-(((S)-1-(2-cyano-4,4-dimethylpent-2-enoyl)pyrrolidin-2-yl)methyl)ureido)-2-phenylethyl)boronic acid] | 78.8 | > 5000 | > 5000 |
| C=CC(=O)N1CCC[C@@H]1CNC(=O)N[C@@H](Cc1ccccc1)B(O)O [Example 36, ((R)-1-(3-(((R)-1-acryloylpyrrolidin-2-yl)methyl)ureido)-2-phenylethyl)boronic acid] | 1140 | > 5000 | > 5000 |

Source: patent publication US12312370B2, “Immunoproteasome inhibitors” (Principia Biopharma Inc., priority 2017, dated 2025)
